# Where two headings read alike, the source gives them in different places. Square brackets hold non-standard residues; d marks the D form. Ends that are not written are not given here. Peptide text beside a SMILES is read from it. * marks the point of attachment. pY = N[CH](Cc1ccc(OP(=O)(O)O)cc1)C(=O)O; Nicotinoyl = O=C(c1cccnc1)*; 3Abz = Nc1cccc(C(=O)O)c1; Isobutyryl = CC(C)C(=O)*; 2Abz = Nc1ccccc1C(=O)O
# How the values were obtained:
# Stat3 [1] = biological target: T1, Stat3 (Mus musculus, UniProt P42227); assay: EMSA of Stat3 DNA-binding activity in nuclear extracts (hSIE probe); assay type: biochemical; design: nuclear extracts (prepared from epidermal growth factor (EGF)-stimulated fibroblasts); endogenous in cells; host or cells: NIH3T3 fibroblasts stimulated with EGF; conditions: for effect on Stat3 DNA-binding activity in vitro (in words): nuclear extracts; for selectivity among Stat3, Stat1 and Stat5 (in words): EMSA IC50 comparison
# Method: (§1) Nuclear extract preparation and gel shift assays. Nuclear extracts were prepared from cell lines and used for electrophoretic mobility shift assay (EMSA) as previously described (Garcia, R. et al. (1997); Yu, C. L. et al. (1995); Turkson, J. et al. (1998)). In some cases, cells were pre-treated with peptidomimetics for the indicated times (12-48 h) prior to harvesting for nuclear extract preparation. In other studies, nuclear extracts were pre-incubated with peptidomimetics for 30 min at room temperature prior to incubation with radiolabeled probe. The ^32P-radiolabeled oligonucleotide probes used are hSIE (high affinity sis-inducible element, m67 variant, 5′-[…]-3′) (SEQ ID NO. 3) that binds both Stat1 and Stat3 (Garcia, R. et al. (1997); Wagner B. J. et al. (1990)) and MGFe (mammary gland factor element from the bovine β-casein gene promoter, 5′-[…]-3′) (SEQ ID NO. 4) that binds Stat1 and Stat5 (Gouilleux, F. et al. (1995); Seidel, H. M. et al. (1995)).
# (§2) Peptidomimetics of the invention can be prepared by replacing prolyl or alanyl residue at the peptide bond that is N-terminal to the phosphotyrosine (Y*) of a peptide such as PY*L or AY*L with an organic substituent such as an optionally substituted aryl or heteroaryl group. The activities of STATs were measured in nuclear extracts (prepared from epidermal growth factor (EGF)-stimulated fibroblasts) as DNA-bound protein complexes by electrophoretic mobility shift assay (EMSA).
# From densitometric analysis of band intensities, the IC50 values (concentration of peptidomimetic at which DNA-binding activity is reduced by 50%), which are reported in Table 3, were determined.
# Stat5:Stat5 = assay: EMSA of Stat5:Stat5 DNA-binding in nuclear extracts; assay type: biochemical, mouse; conditions: nuclear extracts pre-incubated 30 min, mean and SD of at least 3 assays, read-out: IC50 values against STAT Dimers, Stat5:Stat5
# Method: as §1
# as §2, with “(EMSA). STAT-DNA complexes detected include Stat3:Stat3 homodimers (upper band), Stat1:Stat3 heterodimers (intermediate band) and Stat1:Stat1 homodimers (lower band) (FIG. 1A) when a ^32P-labeled hSIE oligonucleotide probe is used, or Stat5:Stat5 (upper band) and Stat1:Stat1 dimers (lower band) (FIG. 1B) when ^32P-labeled MGFe is used as a probe.” for “(EMSA).”
# Stat1:Stat3 = biological target: T2, Stat1:Stat3 (Mus musculus, UniProt P42227); assay: EMSA of Stat1:Stat3 heterodimer DNA-binding in nuclear extracts (hSIE probe); assay type: biochemical; conditions: nuclear extracts pre-incubated 30 min, mean and SD of at least 3 assays, read-out: IC50 values against STAT Dimers, Stat1:Stat3
# T2 construct: nuclear extracts (prepared from epidermal growth factor (EGF)-stimulated fibroblasts); endogenous in cells; host or cells: NIH3T3 fibroblasts stimulated with EGF
# Method: as §1, §2
# Stat1:Stat1 = biological target: T3, Stat1:Stat1 (Mus musculus, UniProt P42225); assay: EMSA of Stat1:Stat1 DNA-binding in nuclear extracts; assay type: biochemical; conditions: nuclear extracts pre-incubated 30 min, EMSA; mean and SD of at least 3 assays; read-out: IC50 values against STAT Dimers, Stat1:Stat1
# T3 construct: nuclear extracts (prepared from epidermal growth factor (EGF)-stimulated fibroblasts); endogenous in cells; host or cells: NIH3T3 fibroblasts stimulated with EGF
# T3 sequence (P42225 1-749): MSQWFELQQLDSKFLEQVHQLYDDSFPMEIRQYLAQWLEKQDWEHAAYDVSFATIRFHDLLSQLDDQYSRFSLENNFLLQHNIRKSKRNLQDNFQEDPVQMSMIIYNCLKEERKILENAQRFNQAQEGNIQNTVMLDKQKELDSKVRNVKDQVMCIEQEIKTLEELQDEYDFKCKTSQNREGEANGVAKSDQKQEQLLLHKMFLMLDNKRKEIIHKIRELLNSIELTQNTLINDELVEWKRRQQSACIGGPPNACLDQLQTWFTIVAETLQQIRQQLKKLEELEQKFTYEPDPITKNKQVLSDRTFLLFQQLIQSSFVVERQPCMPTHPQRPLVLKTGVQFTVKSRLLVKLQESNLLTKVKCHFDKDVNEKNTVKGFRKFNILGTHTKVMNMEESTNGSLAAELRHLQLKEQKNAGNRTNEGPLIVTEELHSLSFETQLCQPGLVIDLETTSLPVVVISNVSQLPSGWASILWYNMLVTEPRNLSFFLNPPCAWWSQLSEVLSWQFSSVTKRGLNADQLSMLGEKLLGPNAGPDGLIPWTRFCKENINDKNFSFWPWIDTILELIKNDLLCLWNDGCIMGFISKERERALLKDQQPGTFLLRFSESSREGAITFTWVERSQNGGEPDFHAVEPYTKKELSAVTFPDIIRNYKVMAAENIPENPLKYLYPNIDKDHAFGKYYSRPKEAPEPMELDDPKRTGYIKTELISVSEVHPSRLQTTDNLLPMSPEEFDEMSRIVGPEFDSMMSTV
# Method: as §1
# as §2, with “(EMSA). STAT-DNA complexes detected include Stat3:Stat3 homodimers (upper band), Stat1:Stat3 heterodimers (intermediate band) and Stat1:Stat1 homodimers (lower band) (FIG. 1A) when a ^32P-labeled hSIE oligonucleotide probe is used, or Stat5:Stat5 (upper band) and Stat1:Stat1 dimers (lower band) (FIG. 1B) when ^32P-labeled MGFe is used as a probe.” for “(EMSA).”
# Stat3 [2] = biological target: T1, Stat3; design: nuclear extracts (prepared from epidermal growth factor (EGF)-stimulated fibroblasts); endogenous in cells; host or cells: NIH3T3 fibroblasts stimulated with EGF; conditions: cited from earlier work
# [3] = system: Stat1:Stat1 and Stat3:Stat3 dimers; assay: Dissociation-reassociation analysis of pooled Sf-9 lysates by EMSA; assay type: biochemical; conditions: 30 min pre-treatment, 30-300 μM PY*LKTK or 3-1000 μM ISS 610, hSIE probe
# Method: Cytosolic extract preparation and luciferase assays. Cytosolic extract preparation from fibroblasts and luciferase assays were previously described (Turkson, J. et al. (1998); Turkson, J. et al. (1999)). Briefly, after two washes with PBS and equilibration for 5 min with 0.5 ml PBS-0.5 mM EDTA, cells were scraped off the dishes and the cell pellet was obtained by centrifugation (4,500×g, 2 min, 4° C.). Cells were resuspended in 0.4 ml of low-salt HEPES buffer (10 mM HEPES (pH 7.8), 10 mM KCl, 0.1 mM EGTA, 0.1 mM EDTA, 1 mM phenylmethylsulfonyl fluoride, and 1 mM dithiothreitol) for 15 min, lysed by the addition of 20 μl of 10% Nonidet P-40 (NP-40), and centrifuged (10,000×g, 30 s, 4° C.) to obtain the cytosolic supernatant, which was used for luciferase assays (Promega) measured with a luminometer. Cytosolic lysates containing activated Stat3 or Stat1 that were used for dissociation-reassociation analysis were prepared from baculovirus-infected Sf-9 insect cells as previously described (Turkson, J. et al. (2001); Zhang, Y. et al. (2000)). Briefly, cultured dishes of Sf-9 cells were washed twice with ice-cold 1×PBS and then PBS containing 1 mM sodium orthovanadate.
# NIH3T3/v-Src = assay: Apo-BrdU labeling and flow cytometry for apoptotic cells; assay type: cell-based, mouse; conditions: NIH3T3/v-Src, 1 mM, 48 h, Apo-BrdU, flow cytometry
# Method: (§3) Cell proliferation, soft-agar growth and Apo-BrdU labeling studies. Proliferating fibroblasts and human tumor cells were counted by phase-contrast microscopy for viable cells (using tyrpan blue exclusion). Colony formation assays in six-well dishes and quantification of colonies by iodonitrotetrazolium violet have been previously described (Turkson, J. et al. (1999)). Treatment of cells with inhibitors was initiated 1 day after seeding cells by adding 75 μl of medium with or without inhibitor, and repeated every two to three days. Apoptosis was measured by Apo-BrdU labeling and following the supplier's (PharMingen; San Diego, Calif.) instructions.
# (§4) Because one of the functions of Stat3 is to protect transformed or tumor cells from apoptosis (Catlett-Falcone, R. et al. (1999b); Epling-Burnette, P. K. et al. (2001); Grandis, J. R. et al. (2000); Bowman, T. et al. (2000b); Bromberg, J. F. et al. (1999)), the ability of peptidomimetics of the invention (and PY*LKTK-MTS for comparison) (SEQ ID NO. 1) to induce apoptosis in Stat3-dependent transformed fibroblasts was evaluated. Viral Src-transformed NIH3T3/v-Src fibroblasts were treated with or without compounds for 48 h. Treated cells were then labeled with Apo-BrdU (PharMingen; San Diego, Calif.) for detection of DNA breaks.
# NIH3T3 = assay: as above; assay type: cell-based, mouse; conditions: NIH3T3, 1 mM, 48 h, flow cytometry
# Method: as §3, §4
# [4] = biological target: Stat3:Stat3 homodimers (activated Stat3 in nuclear extracts of EGF-stimulated NIH3T3 fibroblasts) (mouse) (UniProt P42227); assay: cell-based or functional assay
# [5] = nuclear extracts pre-incubated 30 min, hSIE probe, EMSA, mean and SD of at least 3 assays, read-out: IC50, disruption of Stat3 DNA-binding activity
# T1 sequence (P42227 whole entry): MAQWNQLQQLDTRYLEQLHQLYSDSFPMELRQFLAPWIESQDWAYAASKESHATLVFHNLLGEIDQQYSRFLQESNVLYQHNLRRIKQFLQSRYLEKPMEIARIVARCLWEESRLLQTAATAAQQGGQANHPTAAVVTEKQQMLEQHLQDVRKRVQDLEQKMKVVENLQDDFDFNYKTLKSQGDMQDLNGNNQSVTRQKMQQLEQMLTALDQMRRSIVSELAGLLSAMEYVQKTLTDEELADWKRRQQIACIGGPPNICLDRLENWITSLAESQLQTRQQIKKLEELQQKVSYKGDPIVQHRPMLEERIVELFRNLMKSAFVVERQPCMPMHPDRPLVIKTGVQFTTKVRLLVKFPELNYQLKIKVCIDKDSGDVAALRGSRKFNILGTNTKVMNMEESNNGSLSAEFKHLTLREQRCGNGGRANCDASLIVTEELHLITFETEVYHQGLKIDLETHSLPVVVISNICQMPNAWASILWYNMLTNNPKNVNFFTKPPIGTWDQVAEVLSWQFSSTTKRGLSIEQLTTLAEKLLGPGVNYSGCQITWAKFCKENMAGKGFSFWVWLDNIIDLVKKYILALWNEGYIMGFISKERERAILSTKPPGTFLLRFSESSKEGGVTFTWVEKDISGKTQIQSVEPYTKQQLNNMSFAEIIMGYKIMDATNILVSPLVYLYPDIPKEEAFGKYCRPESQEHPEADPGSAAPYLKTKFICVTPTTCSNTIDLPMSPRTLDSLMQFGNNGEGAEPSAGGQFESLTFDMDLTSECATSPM
# T2 sequence (P42227 whole entry): as above
compound,measurement,setting,value
CC(C)CC(NC(=O)C(Cc1ccc(OP(=O)(O)O)cc1)NC(=O)c1cc([N+](=O)[O-])ccc1F)C(=O)O (stereo not drawn) [ISS 375],IC50,Stat3 [1],> 1000 µM
CC(C)CC(NC(=O)C(Cc1ccc(OP(=O)(O)O)cc1)NC(=O)C(C)C)C(=O)O (stereo not drawn) [ISS234] (Isobutyryl-[pY]-Leu-OH; configuration not given here),IC50,Stat3 [1],> 1000 µM
CC(C)CC(NC(=O)C(Cc1ccc(OP(=O)(O)O)cc1)NC(=O)c1ccccc1N)C(=O)O (stereo not drawn) [ISS 265] (H-[2Abz]-[pY]-Leu-OH; configuration not given here),IC50,Stat3 [1]; [5],> 1000 µM
Cc1ncccc1C(=O)NC(Cc1ccc(OP(=O)(O)O)cc1)C(=O)NC(CC(C)C)C(=O)O (stereo not drawn) [ISS 221],IC50,Stat5:Stat5,50 µM
same,IC50,Stat1:Stat3,455 µM
same,IC50,Stat1:Stat1,310 µM
same,IC50,Stat3 [1]; [5],75 µM
same,effect on Stat3 DNA-binding activity in vitro (in words),Stat3 [1]; EMSA,potent disrupters of active Stat3
CC(C)CC(NC(=O)C(Cc1ccc(OP(=O)(O)O)cc1)NC(=O)c1ccccc1-c1ccccc1)C(=O)O (stereo not drawn) [ISS 360],IC50,Stat3 [1],420 µM
CC(C)CC(NC(=O)C(Cc1ccc(OP(=O)(O)O)cc1)NC(=O)c1cccc(N)c1)C(=O)O (stereo not drawn) [ISS 248] (H-[3Abz]-[pY]-Leu-OH; configuration not given here),IC50,Stat3 [1],> 1000 µM
CC(C)CC(NC(=O)C(Cc1ccc(OP(=O)(O)O)cc1)NC(=O)c1ccc(N)nc1)C(=O)O (stereo not drawn) [ISS 249],IC50,Stat3 [1],> 1000 µM
COc1cccc(OC)c1C(=O)NC(Cc1ccc(OP(=O)(O)O)cc1)C(=O)NC(CC(C)C)C(=O)O (stereo not drawn) [ISS 637],IC50,Stat5:Stat5,695 µM
same,IC50,Stat1:Stat3,195 µM
same,IC50,Stat1:Stat1,255 µM
same,"selectivity among Stat3, Stat1 and Stat5 (in words)",Stat3 [1],preferential suppression of Stat3 activity over those of Stat1 or Stat5
same,increase in potency in inhibiting Stat3 DNA-binding activity compared to tripeptides PY*L or AY*L,"Stat3 [1]; in vitro, EMSA",5 fold
same,IC50,Stat3 [1]; [5],55 ± 35 µM
same,effect on Stat3 DNA-binding activity in vitro (in words),Stat3 [1]; EMSA,potent disrupters of active Stat3
CC(C)CC(NC(=O)C(Cc1ccc(OP(=O)(O)O)cc1)NC(=O)c1cccnc1)C(=O)O (stereo not drawn) [ISS 219] (Nicotinoyl-[pY]-Leu-OH; configuration not given here),IC50,Stat3 [1]; [5],232 µM
CC(=O)NC(Cc1ccc(OP(=O)(O)O)cc1)C(=O)NC(CC(C)C)C(=O)O (stereo not drawn) [ISS230] (Ac-[pY]-Leu-OH; configuration not given here),IC50,Stat3 [1],> 1000 µM
PY*LKTK (P[pY]LKTK) [reference compound],"disruption of Stat3:Stat3 dimer formation and Stat3 DNA-binding activity, as reported earlier",Stat3 [2],disrupt Stat3:Stat3 dimer formation
same,effect on STAT dimers in mixed Stat1:Stat1 and Stat3:Stat3 lysates,[3],appearance of an additional intermediate band representing Stat1:Stat3 heterodimers
PYLKTK-AAVLLPVLLAAP (PYLKTKAAVLLPVLLAAP; membrane translocating sequence; murine) [PYLKTK-MTS],percent of apoptotic cells,NIH3T3/v-Src,0.4%
same,percent of apoptotic cells,NIH3T3,1.2%
CC(C)CC(NC(=O)C(Cc1ccc(OP(=O)(O)O)cc1)NC(=O)c1ccc(-c2ccccc2)cc1)C(=O)O (stereo not drawn) [ISS 355],IC50,Stat3 [1],> 1000 µM
Cc1cnc(C(=O)NC(Cc2ccc(OP(=O)(O)O)cc2)C(=O)NC(CC(C)C)C(=O)O)cn1 (stereo not drawn) [ISS 493],IC50,Stat5:Stat5,300 µM
same,IC50,Stat1:Stat3,230 µM
same,IC50,Stat1:Stat1,273 µM
same,"selectivity among Stat3, Stat1 and Stat5 (in words)",Stat3 [1],preferential suppression of Stat3 activity over those of Stat1 or Stat5
same,IC50,Stat3 [1]; [5],38 µM
CC(C)CC(NC(=O)C(Cc1ccc(OP(=O)(O)O)cc1)NC(=O)c1ccc2ccccc2c1)C(=O)O (stereo not drawn) [ISS 353],IC50,Stat3 [1]; [5],650 µM
CC(C)CC(NC(=O)C(Cc1ccc(OP(=O)(O)O)cc1)NC(=O)c1cnc2ccccc2c1)C(=O)O (stereo not drawn) [ISS 363],IC50,Stat3 [1],643 µM
Alanylphosphotyrosylleucine (peptide),"IC50, concentration at which Stat3 DNA-binding (EMSA, hSIE probe) is reduced by 50%",[4],217 µM
CC(C)CC(NC(=O)C(Cc1ccc(OP(=O)(O)O)cc1)NC(=O)c1cccc2ccccc12)C(=O)O (stereo not drawn) [ISS 352],IC50,Stat3 [1],410 µM
Cc1ccc(C(=O)NC(Cc2ccc(OP(=O)(O)O)cc2)C(=O)NC(CC(C)C)C(=O)O)cn1 (stereo not drawn) [ISS 223],IC50,Stat3 [1],225 µM
Prolylphosphotyrosylleucine (peptide),"IC50, concentration at which Stat3 DNA-binding (EMSA, hSIE probe) is reduced by 50%",[4],182 µM
